# Test results from publication PMC12000319, “Proton conductance by human uncoupling protein 1 is inhibited by purine and pyrimidine nucleotides” (The EMBO Journal, 2025).
# “And” between values parts separate entries of the source, which are not always exact repeats. Equal values may be shown once. Read-outs that look alike come from different tables or passages of the source.
# Key:
# UCP1 [1] = molecular target: T1, UCP1 (Homo sapiens, UniProt P25874); experiment: Differential scanning fluorimetry (nanoDSF) thermal stability shift assay; type: binding
# T1 construct: His8 (N, cleaved yes); Factor Xa protease cleavage site (N, cleaved yes); made in house; host or cells: Saccharomyces cerevisiae strain W303.1B
# T1 sequence (P25874 1-307): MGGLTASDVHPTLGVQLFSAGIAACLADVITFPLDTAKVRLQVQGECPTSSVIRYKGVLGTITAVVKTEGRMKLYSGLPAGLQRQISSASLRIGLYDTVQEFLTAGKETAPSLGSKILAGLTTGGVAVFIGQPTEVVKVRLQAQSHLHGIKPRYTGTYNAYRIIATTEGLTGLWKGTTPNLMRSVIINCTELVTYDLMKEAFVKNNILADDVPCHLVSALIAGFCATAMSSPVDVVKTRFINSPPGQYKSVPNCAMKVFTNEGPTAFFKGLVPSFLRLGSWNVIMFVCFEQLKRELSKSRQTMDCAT
# human OGC (SLC25A11) = molecular target: T2, human OGC (SLC25A11) (Homo sapiens, UniProt Q02978); experiment: as above; type: binding; conditions: 1 mM nucleotide, pH 6.0, single repeats (source data Fig. 4A)
# T2 construct: His8 (N, cleaved yes); Factor Xa protease cleavage site (N, cleaved yes); made in house; host or cells: Saccharomyces cerevisiae strain W303.1B
# T2 sequence (Q02978 1-314): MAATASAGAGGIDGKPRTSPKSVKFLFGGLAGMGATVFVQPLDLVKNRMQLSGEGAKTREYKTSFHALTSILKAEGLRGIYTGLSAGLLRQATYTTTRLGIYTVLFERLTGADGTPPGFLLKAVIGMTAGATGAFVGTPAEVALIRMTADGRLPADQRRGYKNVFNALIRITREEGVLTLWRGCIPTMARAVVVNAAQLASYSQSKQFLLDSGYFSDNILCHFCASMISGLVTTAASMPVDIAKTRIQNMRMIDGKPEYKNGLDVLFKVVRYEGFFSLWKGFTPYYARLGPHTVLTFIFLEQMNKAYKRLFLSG
# From the text: UCP1 is phylogenetically related to mitochondrial dicarboxylate carriers, gaining thermogenic properties as a later evolutionary development (Hughes et al, [2009]; Robinson et al, [2008]). The mitochondrial dicarboxylate carrier (DIC, SLC25A10) and oxoglutarate carrier (OGC, SLC25A11) are most closely related to UCP1 (Gaudry et al, [2019]; Hughes et al, [2009]) and share many residues involved in nucleotide binding in UCP1, such as the arginine triplet at the contact points, R92 and Q85 (Jones et al, [2024]). Given the similarity of the central cavity of UCP1, OGC and DIC, we tested whether the dicarboxylate carriers have the ability to bind nucleotides. For this purpose, we purified human DIC and OGC, and tested whether nucleotides were able to generate a thermostability shift, as observed for their physiological substrates (Pyrihová et al, [2024]). However, all tested nucleotides caused a negligible shift with both DIC or OGC at all pH values tested between 6.0 and 8.0 (Fig. 4A; Appendix Fig. S5). Thus, despite having many residues in common (Fig. 4B–D), UCP1 has evolved to have a few specific residues that allow high-affinity binding of nucleotides without a strong selection for nucleobase.
# Differential scanning fluorimetry (nanoDSF) (Alexandrov et al, [2008]) was carried out with 2 µg UCP1, DIC or OGC protein (100 mM MES/HEPES, pH range 6.0–8.0, 25 mM NaCl, 1 mM TCEP, 0.01% lauryl maltose neopentyl glycol and 0.01 mg/mL tetraoleoyl cardiolipin) and, when required, 1 mM nucleotide, as indicated. The proteins have the following number of tryptophans: UCP1 (two); OGC (two); DIC (one). The samples were loaded into nanoDSF-grade standard glass capillaries. The temperature was increased by […] every minute from 25 to 95 °C, the intrinsic fluorescence was measured in a Prometheus NT.48 nanoDSF device, and the apparent Tm was calculated with the PR.ThermControl software (NanoTemper Technologies).
# UCP1 [2] = molecular target: T1, UCP1; experiment: Isothermal titration calorimetry of nucleotide binding; design: isotherm data point (enthalpy change per injection): unit not given here; conditions: for isotherm data point (enthalpy change per injection): representative isotherm;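 as to all read-outs here: purified human UCP1 in cacodylate buffer with lauryl maltose neopentyl glycol and cardiolipin, titrated with nucleotides, isotherms fitted by one-site model yielding ΔH, Kd and stoichiometry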
# UCP1 [3] = molecular target: T1, UCP1; experiment: Liposome reconstitution and proton conductance assay (pyranine fluorescence); type: biochemical; conditions: UCP1 proteoliposomes, 200 µM oleic acid + 500 µM nucleotide, 2.5 µM valinomycin; single reconstitutions
smiles,measurement,setting,value
"Cc1cn([C@H]2C[C@H](O)[C@@H](COP(=O)(O)OP(=O)(O)OP(=O)(O)O)O2)c(=O)[nH]c1=O [dTTP, thymidine triphosphate]",difference in ΔTm versus GTP,"UCP1 [1]; 1 mM nucleotide, pH 6.0",2.7 °C
same,temperature shift (ΔTm),"UCP1 [1]; 1 mM nucleotide, pH 6.0, detergent-solubilised UCP1, mean of three biological repeats",18.9 °C
same,ΔTm at 1000 µM,"UCP1 [1]; pH 6, read-out: thermal shift (ΔTm), 1 mM nucleotide, pH 6.0, single repeats (source data Fig. 1D)",19 °C
same,ΔTm at 1000 µM,"UCP1 [1]; pH 6.5, read-out: thermal shift (ΔTm), 1 mM nucleotide, pH 6.5, single repeats (source data Fig. 1D)",14.8 °C
same,ΔTm at 1000 µM,"UCP1 [1]; pH 7, read-out: thermal shift (ΔTm), 1 mM nucleotide, pH 7.0, single repeats (source data Fig. 1D)",10.1 °C
same,ΔTm at 1000 µM,"UCP1 [1]; pH 7.5, read-out: thermal shift (ΔTm), 1 mM nucleotide, pH 7.5, single repeats (source data Fig. 1D)",4 °C
same,change in apparent melting temperature (ΔTm) of hOGC,human OGC (SLC25A11),0.5 and 0.3
same,binding affinity to UCP1 (in words),UCP1 [2]; ITC,highest binding affinities
same,Kd,"UCP1 [2]; ITC, pH 6.0, 20 °C, mean ± standard deviation of three biological repeats (Fig. 2A-E)",1.13 ± 0.09 µM
same,Kd,"UCP1 [2]; ITC, single biological repeats (source data Fig. 2F)",1.24 µM and 1.09 µM and 1.07 µM
same,isotherm data point (enthalpy change per injection),"UCP1 [2]; Molar ratio (Nucleotide/UCP) 0.120417, pH 6.0, 20 °C",-22.0628
same,isotherm data point (enthalpy change per injection),"UCP1 [2]; Molar ratio (Nucleotide/UCP) 0.181226, pH 6.0, 20 °C",-22.1545
same,isotherm data point (enthalpy change per injection),"UCP1 [2]; Molar ratio (Nucleotide/UCP) 0.242439, pH 6.0, 20 °C",-21.2571
same,isotherm data point (enthalpy change per injection),"UCP1 [2]; Molar ratio (Nucleotide/UCP) 0.304059, pH 6.0, 20 °C",-20.8684
same,isotherm data point (enthalpy change per injection),"UCP1 [2]; Molar ratio (Nucleotide/UCP) 0.366087, pH 6.0, 20 °C",-22.682
same,isotherm data point (enthalpy change per injection),"UCP1 [2]; Molar ratio (Nucleotide/UCP) 0.428528, pH 6.0, 20 °C",-21.6485
same,isotherm data point (enthalpy change per injection),"UCP1 [2]; Molar ratio (Nucleotide/UCP) 0.491383, pH 6.0, 20 °C",-18.3951
same,isotherm data point (enthalpy change per injection),"UCP1 [2]; Molar ratio (Nucleotide/UCP) 0.554656, pH 6.0, 20 °C",-20.6625
same,isotherm data point (enthalpy change per injection),"UCP1 [2]; Molar ratio (Nucleotide/UCP) 0.618348, pH 6.0, 20 °C",-18.8854
same,isotherm data point (enthalpy change per injection),"UCP1 [2]; Molar ratio (Nucleotide/UCP) 0.682464, pH 6.0, 20 °C",-18.4581
same,isotherm data point (enthalpy change per injection),"UCP1 [2]; Molar ratio (Nucleotide/UCP) 0.747006, pH 6.0, 20 °C",-16.8767
same,isotherm data point (enthalpy change per injection),"UCP1 [2]; Molar ratio (Nucleotide/UCP) 0.811976, pH 6.0, 20 °C",-15.5439
same,isotherm data point (enthalpy change per injection),"UCP1 [2]; Molar ratio (Nucleotide/UCP) 0.877378, pH 6.0, 20 °C",-14.5814
same,isotherm data point (enthalpy change per injection),"UCP1 [2]; Molar ratio (Nucleotide/UCP) 0.943214, pH 6.0, 20 °C",-11.542
same,isotherm data point (enthalpy change per injection),"UCP1 [2]; Molar ratio (Nucleotide/UCP) 1.00949, pH 6.0, 20 °C",-9.131
same,isotherm data point (enthalpy change per injection),"UCP1 [2]; Molar ratio (Nucleotide/UCP) 1.0762, pH 6.0, 20 °C",-6.9461
same,isotherm data point (enthalpy change per injection),"UCP1 [2]; Molar ratio (Nucleotide/UCP) 1.14336, pH 6.0, 20 °C",-4.409
same,isotherm data point (enthalpy change per injection),"UCP1 [2]; Molar ratio (Nucleotide/UCP) 1.21096, pH 6.0, 20 °C",-2.755
same,isotherm data point (enthalpy change per injection),"UCP1 [2]; Molar ratio (Nucleotide/UCP) 1.27901, pH 6.0, 20 °C",-1.022
same,isotherm data point (enthalpy change per injection),"UCP1 [2]; Molar ratio (Nucleotide/UCP) 1.34751, pH 6.0, 20 °C",-0.7829
same,isotherm data point (enthalpy change per injection),"UCP1 [2]; Molar ratio (Nucleotide/UCP) 1.41647, pH 6.0, 20 °C",-1.325
same,isotherm data point (enthalpy change per injection),"UCP1 [2]; Molar ratio (Nucleotide/UCP) 1.48589, pH 6.0, 20 °C",-0.8361
same,isotherm data point (enthalpy change per injection),"UCP1 [2]; Molar ratio (Nucleotide/UCP) 1.55577, pH 6.0, 20 °C",0.501
same,isotherm data point (enthalpy change per injection),"UCP1 [2]; Molar ratio (Nucleotide/UCP) 1.62611, pH 6.0, 20 °C",0.6153
same,isotherm data point (enthalpy change per injection),"UCP1 [2]; Molar ratio (Nucleotide/UCP) 1.69692, pH 6.0, 20 °C",0.02513
same,isotherm data point (enthalpy change per injection),"UCP1 [2]; Molar ratio (Nucleotide/UCP) 1.76819, pH 6.0, 20 °C",-0.2521
same,isotherm data point (enthalpy change per injection),"UCP1 [2]; Molar ratio (Nucleotide/UCP) 1.83995, pH 6.0, 20 °C",0.8236
same,isotherm data point (enthalpy change per injection),"UCP1 [2]; Molar ratio (Nucleotide/UCP) 1.91217, pH 6.0, 20 °C",0.03383
same,isotherm data point (enthalpy change per injection),"UCP1 [2]; Molar ratio (Nucleotide/UCP) 1.98488, pH 6.0, 20 °C",0.2054
same,Proton influx rate,UCP1 [3],84.11 nmol H+/min and 42.34 nmol H+/min and 68.93 nmol H+/min
